One test addresses T1, human 5-HT1a receptors (Homo sapiens, UniProt P08908).
T1 construct: expressed in transfected cells; host or cells: CHO K1 cells
T1 sequence (P08908 1-422): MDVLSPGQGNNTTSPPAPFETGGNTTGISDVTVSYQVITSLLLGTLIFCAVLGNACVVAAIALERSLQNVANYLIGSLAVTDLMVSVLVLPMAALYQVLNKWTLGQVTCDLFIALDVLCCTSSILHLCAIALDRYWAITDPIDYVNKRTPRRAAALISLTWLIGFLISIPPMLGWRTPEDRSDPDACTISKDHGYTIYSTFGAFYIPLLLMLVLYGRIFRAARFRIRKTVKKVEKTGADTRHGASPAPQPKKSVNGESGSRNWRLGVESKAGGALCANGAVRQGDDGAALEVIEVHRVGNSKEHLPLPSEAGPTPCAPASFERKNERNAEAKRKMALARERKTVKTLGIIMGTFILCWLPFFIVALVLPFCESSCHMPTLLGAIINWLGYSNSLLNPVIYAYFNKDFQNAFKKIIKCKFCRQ
Nature of the test: Competition radioligand binding, h5-HT1a. The conditions noted are these: [3H]5-CT; membranes of CHO K1 cells; read-out: Ki 5-HT1A. Here is the method: (§1) Cells and Membrane Preparation: HEK 293 cells stably expressing human 5-HT7B (h5-HT7b) receptors were grown in Dulbecco's Modified Eagle's Medium (DMEM; Gibco) without sodium pyruvate and containing 4.5 g/L glucose, L-glutamine/penicillin-streptomycin (Gemini), 10% fetal bovine serum and 250 mg/l of the antibiotic, G418 (Geneticin) as previously described (Jasper, J. R., Kosaka, A., To, Z. P., Chang, D. J. and Eglen, R. M. (1997) Cloning, expression and pharmacology of a truncated splice variant of the human 5-ht7 receptor (h5-ht7b). Br. J. Pharmacol. 122(1):126-132.). Cell pellets were homogenized in approximately 50 mL of homogenization buffer (buffer A) containing: 50 mM Tris (pH 7.4), 2 mM EGTA, 0.32 M sucrose, 10 μM PMSF, 1 μg/mL leupeptin, 5 μg/mL Pepstatin A, and 5 μg/mL aprotinin using an UltraTurax homogenizer (Tekmar Company, Cincinnati, Ohio) at 80% maximum setting three times for 10 sec. Cell pellets were centrifuged at 4° C. at 1,500×g for 10 min in a Beckman GS-6R centrifuge. Pellets were resuspended in buffer A, homogenized and centrifuged as described above. Pooled supernatants were transferred to centrifuge bottles and centrifuged at 4° C. at 20,000×g for 30 min in a Beckman J2-HS centrifuge. Cell pellets were resuspended in buffer A and were centrifuged at 4° C. at 20,000×g for 30 min. Cell pellets were resuspended in buffer A and stored at −70° C. in aliquots of 2.5 mg/mL total membrane protein. Total membrane protein was assessed utilizing a BCA kit (Pierce; Rockford, Ill.). Membranes containing human 5-HT1a or 5HT2a receptors expressed in CHO K1 cells were prepared as described above.
(§2) Radioligand Binding Assays: For 5-HT7 saturation binding experiments, HEK-293 cell membranes expressing h5-HT7 receptors (5-10 μg membrane protein/well) were incubated in duplicate with [^3H]5-CT (approximately 0.2 nM) in binding assay buffer containing: 50 mM HEPES (pH 7.4), 0.5 mM EDTA, 10 mM MgCl2, 10 μM pargyline to inhibit monoamine oxidase activity, and 0.1% sodium ascorbate, in a final volume of 200 μL in 96-well polypropylene plates for 2 hours at 37° C. Nonspecific binding was determined by incubating membranes with 1 μM 5-HT. All radioligand binding assays were stopped by rapid filtration onto 96-well GF/C filter plates (Packard) soaked in 0.1% polyethylenimine. Filters were washed three times with ice-cold phosphate-buffered saline (PBS) wash buffer containing 50 mM NaPO4 (pH 7.4), 0.9% NaCl, 2 mM MgCl2 and 0.02% NaN3. The filters were then counted using liquid scintillation in a Packard Topcount scintillation counter.
(§3) Data Analysis: Radioligand binding experiments were analyzed with Prism™ (Graphpad, San Diego, Calif.), a computer graphics and statistics program. IC50 values and Hill slopes for compounds were generated by nonlinear regression using Prism™. Values for Ki calculated from IC50 values by the Cheng and Prussoff equation (Cheng, Y. and Prusoff, W. H., (1973), “Relationship between the inhibition constant (Ki) and the concentration of inhibitor which causes 50 per cent inhibition (I50) of an enzymatic reaction.” Biochemical Pharmacol. 22:3099-3108).

The target in test [1] is T2, human 5-HT7B (h5-HT7b) receptors (Homo sapiens, UniProt P34969).
T2 construct: expressed in transfected cells
T2 sequence (P34969 1-432 limits assumed): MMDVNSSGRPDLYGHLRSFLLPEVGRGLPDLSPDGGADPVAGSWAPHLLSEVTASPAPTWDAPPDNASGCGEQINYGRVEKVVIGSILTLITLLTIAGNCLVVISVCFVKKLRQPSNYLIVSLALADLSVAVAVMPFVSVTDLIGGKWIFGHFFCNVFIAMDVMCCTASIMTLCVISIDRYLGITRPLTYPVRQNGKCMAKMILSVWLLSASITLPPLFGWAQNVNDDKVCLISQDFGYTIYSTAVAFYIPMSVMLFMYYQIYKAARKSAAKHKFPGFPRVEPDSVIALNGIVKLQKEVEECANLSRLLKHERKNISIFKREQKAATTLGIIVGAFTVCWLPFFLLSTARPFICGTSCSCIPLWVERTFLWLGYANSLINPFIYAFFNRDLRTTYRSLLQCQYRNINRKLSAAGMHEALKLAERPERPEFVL
Nature of the test: Competition radioligand binding, h5-HT7b. To be noted: [3H]5-CT; membranes of HEK 293 cells; read-out: Ki 5-HT7. Summed up: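 Membranes from HEK 293 cells stably expressing human 5-HT7b incubated with ~0.2 nM [3H]5-CT and varying compound 2 h at 37 °C in HEPES buffer pH 7.4 with pargyline. Nonspecific binding with 1 μM 5-HT; filtration, scintillation counting; IC50 by nonlinear regression converted to Ki via Cheng–Prusoff.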

A further test has as its target T3, human 5HT2a receptors (Homo sapiens, UniProt P28223).
T3 construct: expressed in transfected cells; host or cells: CHO K1 cells
Kind of test: Competition radioligand binding, 5-HT2A. The conditions noted are these: [3H]Ketanserin; membranes of CHO K1 cells; read-out: Ki 5-HT2A. As to the method:
as §1, §2, §3

For test [2], the target named is T4, human 5-HT6 (h5-HT6) receptors (Homo sapiens, UniProt P50406).
T4 construct: purchased Receptor Biology, Inc. (Beltsville, Md.); host or cells: HEK-293 cells
T4 sequence (P50406 whole entry): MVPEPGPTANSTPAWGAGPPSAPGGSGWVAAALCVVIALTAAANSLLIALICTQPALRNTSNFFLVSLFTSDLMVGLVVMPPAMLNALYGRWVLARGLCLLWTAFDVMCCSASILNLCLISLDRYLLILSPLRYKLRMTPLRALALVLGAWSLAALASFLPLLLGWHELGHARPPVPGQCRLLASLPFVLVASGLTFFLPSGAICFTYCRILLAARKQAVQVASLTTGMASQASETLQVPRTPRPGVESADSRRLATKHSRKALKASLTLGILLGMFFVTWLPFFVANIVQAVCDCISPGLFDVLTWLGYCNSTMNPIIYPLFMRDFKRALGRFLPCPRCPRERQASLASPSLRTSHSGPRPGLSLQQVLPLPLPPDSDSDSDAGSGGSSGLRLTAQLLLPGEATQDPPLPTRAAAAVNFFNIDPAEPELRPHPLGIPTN
Nature of the test: Competition radioligand binding, h5-HT6. To be noted: [3H]LSD; membranes of HEK-293 cells; read-out: Ki 5-HT6.

Test [3] has as its target T5, human D2S dopamine (hD2S-DA) receptors (Homo sapiens, UniProt P14416).
T5 construct: purchased Receptor Biology, Inc. (Beltsville, Md.); host or cells: A9 L cells
Nature of the test: Competition radioligand binding, hD2S dopamine. To be noted: [3H]Spiperone; membranes of A9 L cells; read-out: Ki D2.

T5 sequence (P14416 1-414 isoform P14416-2): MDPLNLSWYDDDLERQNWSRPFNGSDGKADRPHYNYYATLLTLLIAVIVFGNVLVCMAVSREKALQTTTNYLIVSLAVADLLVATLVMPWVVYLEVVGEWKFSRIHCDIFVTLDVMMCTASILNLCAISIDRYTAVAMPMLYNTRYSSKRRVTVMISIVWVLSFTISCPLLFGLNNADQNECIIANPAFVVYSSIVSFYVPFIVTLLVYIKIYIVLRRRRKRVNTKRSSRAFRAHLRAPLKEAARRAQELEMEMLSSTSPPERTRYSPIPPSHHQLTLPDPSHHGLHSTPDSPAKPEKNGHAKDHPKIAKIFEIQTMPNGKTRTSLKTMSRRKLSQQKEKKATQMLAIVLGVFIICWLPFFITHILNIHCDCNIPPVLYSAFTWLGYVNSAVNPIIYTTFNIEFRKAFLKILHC
T3 sequence (P28223 whole entry): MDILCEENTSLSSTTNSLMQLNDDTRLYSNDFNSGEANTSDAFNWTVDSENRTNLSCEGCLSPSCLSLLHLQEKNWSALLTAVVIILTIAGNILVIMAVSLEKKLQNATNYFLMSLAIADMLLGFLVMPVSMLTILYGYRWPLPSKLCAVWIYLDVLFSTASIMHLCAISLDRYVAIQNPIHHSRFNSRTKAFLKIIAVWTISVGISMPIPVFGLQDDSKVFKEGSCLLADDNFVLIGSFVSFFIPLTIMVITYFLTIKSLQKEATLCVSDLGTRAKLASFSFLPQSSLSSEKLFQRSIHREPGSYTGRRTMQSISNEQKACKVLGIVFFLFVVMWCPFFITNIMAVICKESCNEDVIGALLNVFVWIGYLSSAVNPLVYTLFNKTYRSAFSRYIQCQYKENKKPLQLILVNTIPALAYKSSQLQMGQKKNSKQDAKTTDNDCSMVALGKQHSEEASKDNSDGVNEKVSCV

With `N=C(NCc1cccc2ccccc12)NC(=O)N[C@@H](Cc1ccc(O)cc1)C(N)=O` [Example 35], the Ki on human 5-HT1a receptors is greater than 4000 nM; in test [1] it was 5.1 nM; at human 5HT2a receptors, 0.92 nM; in test [2], 460 nM; in test [3] it was 630 nM.
The corresponding values for `N=C(NCc1cccc2ccccc12)NC(=O)N1CCC2(CC1)C(=O)NCN2c1ccccc1` [Example 36, N-(1-Naphthylmethyl)-N′-[(4-oxo-1-phenyl-1,3,8-triazaspiro[4.5]dec-8yl)carbonyl]guanidine] are 580 nM, 11 nM, 33 nM, 740 nM and 340 nM.
The like results for `N=C(NCc1cccc2ccccc12)NC(=O)NC1CCCc2ccccc21` (stereo not drawn) [Example 40, 1-{[({Imino[(1-naphthylmethyl)amino]methyl}amino)carbonyl]amino}-1,2,3,4-tetrahydronaphthalene] were, in that order, 540 nM, 24 nM, 4.1 nM, 590 nM and 1700 nM.
For the compound `N=C(NCc1cccc2ccccc12)NC(=O)NC[C@@H]1CCCC[C@@H]1O` [Example 41, 1-({[([({[(1S,2S)2-Hydroxycyclohexyl]methyl}amino)carbonyl]amino}(imino)methyl]amino}methyl)naphthalene], the Ki on human 5-HT1a receptors is 54 nM; in test [1], 8.9 nM; on human 5HT2a receptors it was 2 nM; in test [2], 340 nM; in test [3], 1070 nM.
`N=C(NCc1cccc2ccccc12)NC(=O)NC1CCc2ccccc21` (stereo not drawn) [Example 43, 1-({[{[(2,3-Dihydro-1H-inden-1-ylamino)carbonyl]amino}(imino)methyl]amino}methyl)naphthalene]: the Ki came to 630 nM on human 5-HT1a receptors; 22 nM in test [1]; 4.8 nM at human 5HT2a receptors; 900 nM in test [2]; 2190 nM in test [3].
The like results for `COc1ccccc1CN1CCC(CNC(=O)NC(=N)NCc2cccc3ccccc23)CC1` [Example 45, 4-({[({Imino[(1-naphthylmethyl)amino]methyl}amino)carbonyl]amino}methyl)-1-(2-methoxybenzyl)piperidine] were, in that order, 600 nM, 21 nM, 3.9 nM, 1550 nM and 500 nM.
The like results for `N=C(NCc1cccc2ccccc12)NC(=O)NC[C@@H]1CCCC[C@H]1O` [Example 46, 1-({[{[({[(1S,2R)-2-Hydroxycyclohexyl]methyl}amino)carbonyl]amino}(imino)methyl]amino}methyl)naphthalene] were, in that order, 49 nM, 9.8 nM, 0.6 nM, 500 nM and 410 nM.
The like results for `N=C(NCc1cccc2ccccc12)NC(=O)NCC1(O)CCCCC1` [Example 50, 1-({[[({[(1-Hydroxycyclohexyl)methyl]amino}carbonyl)amino](imino)methyl]amino}methyl)naphthalene] were, in that order, 47 nM, 26 nM, 0.25 nM, 620 nM and 1070 nM.
With `CCOC(=O)N1CCN(C(=O)NC(=N)NCc2cccc3ccccc23)CC1` [Example 51, Ethyl 4-[({imino[(1-naphthylmethyl)amino]methyl}amino)carbonyl]-1-piperazine carboxylate], the Ki is greater than 4000 nM on human 5-HT1a receptors; 15 nM in test [1]; 18 nM on human 5HT2a receptors; greater than 10000 nM in test [2]; greater than 2500 nM in test [3].
The corresponding values for `COc1cccc(CCNC(=O)NC(=N)NCc2cccc3ccccc23)c1OC` [Example 53, 1-({[({[(2,3-Dimethoxyphenethyl)amino]carbonyl}amino)(imino)methyl]amino}methyl)naphthalene] are 170 nM, 62 nM, 0.8 nM, 1870 nM and 290 nM.
The corresponding values for `CNC(=O)NC(=N)NCc1cccc2ccccc12` [Example 54, 1-{[(1-Imino{[(methylamino)carbonyl]amino}methyl)amino]methyl}naphthalene] are 2450 nM, 13 nM, 9.6 nM, 2450 nM and greater than 2500 nM.
The corresponding values for `C[C@@H](O)CNC(=O)NC(=N)NCc1cccc2ccccc12` [Example 55, 1-({[[({[(2R)-2-Hydroxypropyl]amino}carbonyl)amino](imino)methyl]amino}methyl)naphthalene] are 1720 nM, 10 nM, 1.5 nM, 2320 nM and greater than 2500 nM.
With `CN(C)C(=O)NC(=N)NCc1cccc2ccccc12` [Example 56, 1-({[{[(Dimethylamino)carbonyl]amino}(imino)methyl]amino}methyl)naphthalene], the inhibition constant Ki on human 5-HT1a receptors was 700 nM; in test [1], 94 nM; on human 5HT2a receptors, 17 nM; in test [2] it was greater than 10000 nM; in test [3], greater than 2500 nM.
Regarding `COc1cccc(CN2CCC(CNC(=O)NC(=N)NCc3cccc4ccccc34)CC2)c1` [Example 58, 4-({[({Imino[(1-naphthylmethyl)amino]methyl}amino)carbonyl]amino}methyl)-1-(3-methoxybenzyl)piperidine], the Ki stood at 420 nM on human 5-HT1a receptors; 23 nM in test [1]; 8.1 nM on human 5HT2a receptors; 1370 nM in test [2]; 1570 nM in test [3].
Consider `N=C(NCc1cccc2ccccc12)NC(=O)NCC1CCN(Cc2ccc([N+](=O)[O-])cc2)CC1` [Example 60, 4-({[({Imino[(1-naphthylmethyl)amino]methyl}amino)carbonyl]amino}methyl)-1-(4-nitrobenzyl)piperidine], for which the Ki at human 5-HT1a receptors is 68 nM; in test [1], 51 nM; on human 5HT2a receptors, 16 nM; in test [2] it was 3470 nM; in test [3], 1870 nM.

By Ki is commonly meant the dissociation constant of the complex between target and ligand, obtained from inhibition or displacement.

Source of the values: patent US20040044037A1, “Amidino-urea serotonin receptor ligands and compositions, their pharmaceutical uses, and methods for their snythesis” (priority 2003, published 2004).
